Patent US9309242B2, “Substituted pyrido[2,3-b]pyrazines as FGFR kinase inhibitors” (priority 2011, dated 2016)
Where two headings read alike, the source gives them in different places.

Tests used:
FGFR1 (h) = FGFR1 (h) (Homo sapiens, UniProt P11362); assay: FGFR1 (enzymatic assay), TR-FRET; type: biochemical; conditions: average values if tested multiple times, read-out: FGFR 1 pIC50 (converted)
FGFR2 (h) = FGFR2 (h) (Homo sapiens, UniProt P21802); assay: FGFR2 (enzymatic assay), TR-FRET; type: biochemical; conditions: average values if tested multiple times
Method: In a final reaction volume of 30 μL, FGFR2 (h) (150 ng/ml) was incubated with 50 mM HEPES pH 7.5, 6 mM MnCl2, 1 mM DTT, 0.1 mM Na3VO4, 0.01% Triton-X-100, 500 nM Btn-Flt3 and 0.4 μM ATP in the presence of compound (1% DMSO final).

FGFR3 (h) = FGFR3 (h) (Homo sapiens, UniProt P22607); assay: FGFR3 (enzymatic assay), TR-FRET; type: biochemical; conditions: average values if tested multiple times, read-out: FGFR 3 pIC50 (converted)
Text: Time-Resolved Fluorescence Resonance Energy Transfer (TR-FRET) signal (ex340 nm.

FGFR4 (h) = FGFR4 (h) (Homo sapiens, UniProt P22455); assay: FGFR4 (enzymatic assay), TR-FRET; type: biochemical; conditions: FGFR 4 pIC50, enzymatic assay; average values if tested multiple times
KDR (h) = KDR (h) (Homo sapiens, UniProt P35968); assay: KDR (VEGFR2) (enzymatic assay), TR-FRET; type: biochemical; conditions: average values if tested multiple times, read-out: VEGFR 2 (KDR) pIC50 (converted)
Method: KDR (VEGFR2) (Enzymatic Assay)
In a final reaction volume of 30 μL, KDR (h) (150 ng/ml) was incubated with 50 mM HEPES pH 7.5, 6 mM MnCl2, 1 mM DTT, 0.1 mM Na3VO4, 0.01% Triton-X-100, 500 nM Btn-Flt3 and 3 μM ATP in the presence of compound (1% DMSO final). After incubation for 120 minutes at room temperature the reaction was stopped with 2.27 nM EU-anti P-Tyr, 7 mM EDTA, 31.25 nM SA-XL-665 and 0.02% BSA which was present for 60 minutes at room temperature. Time-Resolved Fluorescence Resonance Energy Transfer (TR-FRET) signal (ex340 nm. Em 620 nm, em 655 nm) was measured afterwards and results are expressed in RFU (Relative Fluorescence Units).

[1] = biological target: T1, Ba/F3-FGFR1-transfected cells (Homo sapiens, UniProt P11362); assay: Ba/F3-FGFR1 (minus IL3) cellular proliferation assay, Alamar Blue; type: cell-based
T1 construct: BAF3-FGFR1 (MIN IL3) pIC50; other: minus IL3
Method: (§1) Ba/F3-FGFR1 (Minus IL3 or Plus IL3) (Cellular Proliferation Assay)
(§2) In a 384 well plate, 100 nl of compound dilution in DMSO was sprayed before adding 50 μl cell culture medium (phenol red free RPMI-1640, 10% FBS, 2 mM L-Glutamine and 50 μg/ml Gentamycin) containing 20000 cells per well of Ba/F3-FGFR1-transfected cells. Cells were put in an incubator at 37° C. and 5% CO2. After 24 hours, 10 μl of Alamar Blue solution (0.5 mM K3Fe(CN)6, 0.5 mM K4Fe(CN)6, 0.15 mM Resazurin and 100 mM Phosphate Buffer) was added to the wells, incubated for 4 hours at 37° C. and 5% CO2 before RFU's (Relative Fluorescence Units) (ex. 540 nm., em. 590 nm.) were measured in a fluororescence plate reader.

[2] = test system: Ba/F3-FGFR1-transfected cells; assay: Ba/F3-FGFR1 (plus IL3) cellular proliferation assay, counterscreen with 10 ng/ml murine IL3; type: cell-based; conditions: read-out: BAF3-FGFR1 (PLUS IL3) pIC50 (converted)
Method: as §1, §2
(§3) As a counterscreen the same experiment was performed in the presence of 10 ng/ml murine IL3.

[3] = biological target: T2, Ba/F3-FGFR3-transfected cells (Homo sapiens, UniProt P22607); assay: Ba/F3-FGFR3 (minus IL3) cellular proliferation assay, Alamar Blue; type: cell-based
T2 construct: BAF3-FGFR3 (MIN IL3) pIC50; other: minus IL3
Method: (§4) Ba/F3-FGFR3 (Minus IL3 or Plus IL3) (Cellular Proliferation Assay)
as §2, with “Ba/F3-FGFR3-transfected” for “Ba/F3-FGFR1-transfected”, “reader. […]” for “reader.”

[4] = test system: Ba/F3-FGFR3-transfected cells; assay: Ba/F3-FGFR3 (plus IL3) cellular proliferation assay, counterscreen with 10 ng/ml murine IL3; type: cell-based; conditions: read-out: BAF3-FGFR3 (PLUS IL3) pIC50 (converted)
Method: as §4
as §2, with “Ba/F3-FGFR3-transfected” for “Ba/F3-FGFR1-transfected”
as §3

[5] = biological target: T3, Ba/F3-KDR-transfected cells (Homo sapiens, UniProt P35968); assay: Ba/F3-KDR (minus IL3) cellular proliferation assay, Alamar Blue; type: cell-based
T3 construct: BAF3-KDR (MIN IL3) pIC50; other: minus IL3
Method: Ba/F3-KDR (Minus IL3 or Plus IL3) (Cellular Proliferation Assay)
as §2, with “n1” for “nl”, “Ba/F3-KDR-transfected” for “Ba/F3-FGFR1-transfected”, “reader. […]” for “reader.”

[6] = biological target: Ba/F3-FGFR4-transfected cells (Homo sapiens, UniProt P22455); assay: Ba/F3-FGFR4 cellular proliferation assay, Alamar Blue; type: cell-based
Method: Ba/F3-FGFR4 (Cellular Proliferation Assay)
as §2, with “n1” for “nl”, “Ba/F3-FGFR4-transfected” for “Ba/F3-FGFR1-transfected”

[7] = enzymatic assay, read-out: FGFR 2 pIC50 (converted)
[8] = plus IL3 (10 ng/ml murine IL3, counterscreen)

T3 sequence (P35968 whole entry, change not shown): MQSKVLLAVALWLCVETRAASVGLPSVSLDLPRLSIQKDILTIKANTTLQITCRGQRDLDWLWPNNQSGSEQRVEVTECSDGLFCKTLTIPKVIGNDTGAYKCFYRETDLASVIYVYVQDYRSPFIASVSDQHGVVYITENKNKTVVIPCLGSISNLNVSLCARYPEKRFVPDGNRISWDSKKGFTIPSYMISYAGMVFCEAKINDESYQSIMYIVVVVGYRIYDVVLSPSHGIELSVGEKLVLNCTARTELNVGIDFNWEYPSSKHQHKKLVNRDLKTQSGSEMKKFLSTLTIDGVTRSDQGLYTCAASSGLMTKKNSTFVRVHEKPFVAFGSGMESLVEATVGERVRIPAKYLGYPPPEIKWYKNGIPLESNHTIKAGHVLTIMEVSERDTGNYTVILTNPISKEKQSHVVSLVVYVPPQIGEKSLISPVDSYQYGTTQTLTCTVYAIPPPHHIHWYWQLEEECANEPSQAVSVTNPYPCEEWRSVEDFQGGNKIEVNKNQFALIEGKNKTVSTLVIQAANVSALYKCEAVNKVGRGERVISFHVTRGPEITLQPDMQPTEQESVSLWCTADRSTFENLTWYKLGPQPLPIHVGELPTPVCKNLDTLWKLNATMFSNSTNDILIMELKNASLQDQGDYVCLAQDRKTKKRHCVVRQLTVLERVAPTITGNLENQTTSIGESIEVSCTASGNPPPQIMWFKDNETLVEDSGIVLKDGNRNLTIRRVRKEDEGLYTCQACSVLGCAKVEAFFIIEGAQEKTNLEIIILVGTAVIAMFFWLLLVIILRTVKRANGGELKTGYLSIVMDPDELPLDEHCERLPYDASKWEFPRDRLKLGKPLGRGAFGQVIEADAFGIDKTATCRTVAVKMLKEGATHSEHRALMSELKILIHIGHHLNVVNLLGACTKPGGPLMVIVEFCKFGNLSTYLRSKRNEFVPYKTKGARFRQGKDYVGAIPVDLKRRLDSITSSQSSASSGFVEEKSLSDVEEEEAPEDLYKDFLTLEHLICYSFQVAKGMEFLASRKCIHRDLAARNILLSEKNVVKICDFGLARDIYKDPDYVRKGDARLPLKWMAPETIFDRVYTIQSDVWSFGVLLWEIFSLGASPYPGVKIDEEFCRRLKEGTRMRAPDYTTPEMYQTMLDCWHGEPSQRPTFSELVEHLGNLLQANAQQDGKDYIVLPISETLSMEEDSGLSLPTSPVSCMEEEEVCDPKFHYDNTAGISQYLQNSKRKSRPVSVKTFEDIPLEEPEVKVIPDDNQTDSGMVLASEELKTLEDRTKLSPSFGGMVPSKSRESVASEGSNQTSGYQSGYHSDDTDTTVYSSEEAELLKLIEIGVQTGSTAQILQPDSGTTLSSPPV
Sequence of FGFR2 (h) (P21802 22-821): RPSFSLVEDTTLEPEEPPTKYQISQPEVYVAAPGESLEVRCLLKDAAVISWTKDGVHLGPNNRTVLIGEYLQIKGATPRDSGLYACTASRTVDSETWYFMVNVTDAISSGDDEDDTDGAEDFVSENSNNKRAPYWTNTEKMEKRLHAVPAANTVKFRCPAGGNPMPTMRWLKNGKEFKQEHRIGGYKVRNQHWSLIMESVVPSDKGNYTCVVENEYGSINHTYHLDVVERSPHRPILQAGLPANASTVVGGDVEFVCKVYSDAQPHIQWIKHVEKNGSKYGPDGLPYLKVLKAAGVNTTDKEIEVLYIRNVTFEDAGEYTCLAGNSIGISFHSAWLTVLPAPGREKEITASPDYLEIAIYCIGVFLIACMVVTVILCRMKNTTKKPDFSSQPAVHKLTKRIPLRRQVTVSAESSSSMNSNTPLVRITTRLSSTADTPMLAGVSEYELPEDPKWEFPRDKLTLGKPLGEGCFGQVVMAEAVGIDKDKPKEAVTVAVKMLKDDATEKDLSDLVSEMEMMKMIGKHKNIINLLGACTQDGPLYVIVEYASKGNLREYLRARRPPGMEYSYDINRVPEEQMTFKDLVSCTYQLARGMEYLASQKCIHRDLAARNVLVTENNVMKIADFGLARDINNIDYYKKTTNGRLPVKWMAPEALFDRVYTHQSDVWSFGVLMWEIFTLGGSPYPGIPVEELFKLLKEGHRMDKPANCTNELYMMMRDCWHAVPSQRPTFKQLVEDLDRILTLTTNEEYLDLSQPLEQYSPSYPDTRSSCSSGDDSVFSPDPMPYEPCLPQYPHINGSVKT
Sequence of FGFR3 (h) (P22607 23-806): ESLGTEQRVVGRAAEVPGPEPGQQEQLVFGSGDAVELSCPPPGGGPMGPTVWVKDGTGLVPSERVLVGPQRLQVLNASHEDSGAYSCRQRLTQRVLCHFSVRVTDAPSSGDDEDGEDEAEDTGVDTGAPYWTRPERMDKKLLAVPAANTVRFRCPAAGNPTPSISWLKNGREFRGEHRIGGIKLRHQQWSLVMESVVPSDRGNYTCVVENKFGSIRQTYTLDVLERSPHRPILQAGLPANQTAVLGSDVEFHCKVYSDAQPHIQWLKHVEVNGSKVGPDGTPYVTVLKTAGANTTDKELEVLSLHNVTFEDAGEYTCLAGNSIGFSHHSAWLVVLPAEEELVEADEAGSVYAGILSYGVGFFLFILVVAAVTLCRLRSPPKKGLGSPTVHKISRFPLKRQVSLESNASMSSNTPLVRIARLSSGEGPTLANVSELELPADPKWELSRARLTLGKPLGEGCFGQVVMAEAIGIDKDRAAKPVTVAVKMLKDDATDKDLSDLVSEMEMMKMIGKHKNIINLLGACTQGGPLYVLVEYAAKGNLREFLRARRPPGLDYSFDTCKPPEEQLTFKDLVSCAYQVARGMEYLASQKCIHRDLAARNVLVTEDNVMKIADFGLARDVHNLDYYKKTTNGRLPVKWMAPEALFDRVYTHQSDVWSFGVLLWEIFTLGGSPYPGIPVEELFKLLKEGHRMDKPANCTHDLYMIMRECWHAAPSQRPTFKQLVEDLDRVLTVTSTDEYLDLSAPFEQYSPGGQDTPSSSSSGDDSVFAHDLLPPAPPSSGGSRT
T1 sequence (P11362 whole entry, change not shown): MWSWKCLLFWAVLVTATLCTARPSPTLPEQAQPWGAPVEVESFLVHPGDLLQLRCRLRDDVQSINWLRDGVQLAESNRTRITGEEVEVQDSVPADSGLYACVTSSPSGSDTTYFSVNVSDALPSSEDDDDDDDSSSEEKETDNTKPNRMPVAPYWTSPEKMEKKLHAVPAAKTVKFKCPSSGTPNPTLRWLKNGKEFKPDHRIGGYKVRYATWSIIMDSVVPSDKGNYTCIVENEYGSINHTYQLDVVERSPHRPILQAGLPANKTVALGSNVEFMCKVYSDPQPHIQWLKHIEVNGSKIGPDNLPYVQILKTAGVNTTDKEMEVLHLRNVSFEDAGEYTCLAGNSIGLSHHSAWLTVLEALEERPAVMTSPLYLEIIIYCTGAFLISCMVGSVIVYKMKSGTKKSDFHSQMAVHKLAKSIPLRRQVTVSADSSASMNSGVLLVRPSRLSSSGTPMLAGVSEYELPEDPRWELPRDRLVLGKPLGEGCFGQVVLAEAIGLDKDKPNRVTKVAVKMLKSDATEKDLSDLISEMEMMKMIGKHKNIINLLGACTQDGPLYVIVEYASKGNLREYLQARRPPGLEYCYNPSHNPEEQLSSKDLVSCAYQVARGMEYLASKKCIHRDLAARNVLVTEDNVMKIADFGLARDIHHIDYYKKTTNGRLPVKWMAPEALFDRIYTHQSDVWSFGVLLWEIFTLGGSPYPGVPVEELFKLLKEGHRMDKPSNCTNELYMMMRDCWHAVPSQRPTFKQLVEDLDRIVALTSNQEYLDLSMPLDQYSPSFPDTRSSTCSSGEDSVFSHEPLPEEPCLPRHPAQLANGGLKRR
Sequence of Ba/F3-FGFR4-transfected cells (P22455 whole entry, change not shown): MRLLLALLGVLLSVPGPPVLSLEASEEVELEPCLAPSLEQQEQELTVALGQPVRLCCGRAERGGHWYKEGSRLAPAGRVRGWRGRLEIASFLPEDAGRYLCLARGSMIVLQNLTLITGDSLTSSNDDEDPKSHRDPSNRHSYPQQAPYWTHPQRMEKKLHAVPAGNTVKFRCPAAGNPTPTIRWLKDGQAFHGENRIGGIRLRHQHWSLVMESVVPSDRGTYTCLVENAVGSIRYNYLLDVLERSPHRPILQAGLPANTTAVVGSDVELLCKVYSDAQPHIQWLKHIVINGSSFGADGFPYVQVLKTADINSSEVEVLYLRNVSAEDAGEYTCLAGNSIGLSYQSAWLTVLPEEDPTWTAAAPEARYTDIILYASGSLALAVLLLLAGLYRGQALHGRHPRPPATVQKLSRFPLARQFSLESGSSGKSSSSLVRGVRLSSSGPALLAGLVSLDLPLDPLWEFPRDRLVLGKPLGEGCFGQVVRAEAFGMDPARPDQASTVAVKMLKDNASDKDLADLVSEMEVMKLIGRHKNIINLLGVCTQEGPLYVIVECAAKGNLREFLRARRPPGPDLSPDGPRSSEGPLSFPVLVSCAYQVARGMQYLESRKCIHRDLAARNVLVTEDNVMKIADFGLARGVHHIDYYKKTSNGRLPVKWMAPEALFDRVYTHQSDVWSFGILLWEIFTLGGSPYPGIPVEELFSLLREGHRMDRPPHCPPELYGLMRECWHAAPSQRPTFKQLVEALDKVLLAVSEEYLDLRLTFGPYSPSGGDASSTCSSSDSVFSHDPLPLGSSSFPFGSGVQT

## COc1cc(OC)cc(N(CCNC(C)C)c2ccc3ncc(-c4cnn(C)c4)nc3n2)c1 [Compound 1]
FGFR1 (h)
  IC50: 5.01 nM
FGFR2 (h); FGFR 2 pIC50, enzymatic assay
  IC50: 25.1 nM
FGFR3 (h)
  IC50: 5.01 nM
FGFR4 (h)
  IC50: 25.1 nM
KDR (h)
  IC50: 251 nM
[1]
  BAF3-FGFR1 (MIN IL3) pIC50: 8.5
[2]
  IC50: > 10000 nM
[3]
  BAF3-FGFR3 (MIN IL3) pIC50: 8.1
[4]
  IC50: > 10000 nM
[5]
  BAF3-KDR (MIN IL3) pIC50: 5.6
[6]
  BAF3-FGFR4 pIC50: ~7.06

## COc1cc(OC)cc(N(CC(O)C(F)(F)F)c2ccc3ncc(-c4cnn(C)c4)nc3n2)c1 (centres unmarked) [Compound 8]
FGFR1 (h)
  IC50: 1.26 nM
FGFR2 (h); [7]
  IC50: 6.31 nM
FGFR3 (h)
  IC50: 2 nM
FGFR4 (h)
  IC50: 3.16 nM
KDR (h)
  IC50: 126 nM
[1]
  BAF3-FGFR1 (MIN IL3) pIC50: 7.6
[2]; [8]
  IC50: > 10000 nM
[3]
  BAF3-FGFR3 (MIN IL3) pIC50: 7.6
[4]; [8]
  IC50: > 10000 nM
[5]
  BAF3-KDR (MIN IL3) pIC50: 5.3
[6]
  BAF3-FGFR4 pIC50: 6.66

## COc1cc(OC)c(F)c(N(CCNC(C)C)c2ccc3ncc(-c4cnn(C)c4)nc3n2)c1 [Compound 2]
FGFR1 (h)
  IC50: 2 nM
FGFR2 (h); [7]
  IC50: 5.01 nM
FGFR3 (h)
  IC50: 3.16 nM
FGFR4 (h)
  IC50: 7.94 nM
KDR (h)
  IC50: 79.4 nM
[1]
  BAF3-FGFR1 (MIN IL3) pIC50: 8.3
[2]
  IC50: > 10000 nM
[3]
  BAF3-FGFR3 (MIN IL3) pIC50: 8.0
[4]
  IC50: > 10000 nM
[5]
  BAF3-KDR (MIN IL3) pIC50: 6.2
[6]
  BAF3-FGFR4 pIC50: 7.64

## COc1cc(OC)c(F)c(N(Cc2ncc[nH]2)c2ccc3ncc(-c4cnn(C)c4)nc3n2)c1F [Compound 25]
FGFR1 (h)
  IC50: 7.94 nM
FGFR2 (h); [7]
  IC50: 14.1 nM
FGFR3 (h)
  IC50: 2.51 nM
FGFR4 (h)
  IC50: 3.55 nM
KDR (h)
  IC50: 79.4 nM
[1]
  BAF3-FGFR1 (MIN IL3) pIC50: 8.8
[2]; [8]
  IC50: 6310 nM
[3]
  BAF3-FGFR3 (MIN IL3) pIC50: 8.5
[4]; [8]
  IC50: > 10000 nM
[5]
  BAF3-KDR (MIN IL3) pIC50: 6.7
[6]
  BAF3-FGFR4 pIC50: ~8.23

## COc1cc(/N=c2\ccc3ncc(-c4cnn(C)c4)nc3n2CCCO)cc(OC)c1 [Compound 19]
FGFR1 (h)
  IC50: 0.398 nM
FGFR2 (h); [7]
  IC50: 1.26 nM
FGFR3 (h)
  IC50: 0.316 nM
FGFR4 (h)
  IC50: 0.398 nM
KDR (h)
  IC50: 5.01 nM
[1]
  BAF3-FGFR1 (MIN IL3) pIC50: 8.0
[2]; [8]
  IC50: > 10000 nM
[3]
  BAF3-FGFR3 (MIN IL3) pIC50: 8.0
[4]; [8]
  IC50: > 10000 nM
[5]
  BAF3-KDR (MIN IL3) pIC50: 6.4

## COc1cc(OC)cc(N(CCO)c2ccc3ncc(-c4cnn(C)c4)nc3n2)c1 [Compound 21]
FGFR1 (h)
  IC50: 2 nM
FGFR2 (h); [7]
  IC50: 3.98 nM
FGFR3 (h)
  IC50: 0.794 nM
FGFR4 (h)
  IC50: 5.01 nM
KDR (h)
  IC50: 63.1 nM
[1]
  BAF3-FGFR1 (MIN IL3) pIC50: 7.3
[2]; [8]
  IC50: > 10000 nM
[3]
  BAF3-FGFR3 (MIN IL3) pIC50: 7.3
[4]; [8]
  IC50: > 10000 nM
[5]
  BAF3-KDR (MIN IL3) pIC50: 5.6
[6]
  BAF3-FGFR4 pIC50: 6.69

## COc1cc(OC)cc(N(CCCO)c2ccc3ncc(-c4cnn(C)c4)nc3n2)c1 [Compound 18]
FGFR1 (h)
  IC50: 2 nM
FGFR2 (h); [7]
  IC50: 3.98 nM
FGFR3 (h)
  IC50: 1 nM
FGFR4 (h)
  IC50: 3.16 nM
KDR (h)
  IC50: 50.1 nM
[1]
  BAF3-FGFR1 (MIN IL3) pIC50: 7.4
[2]; [8]
  IC50: > 10000 nM
[3]
  BAF3-FGFR3 (MIN IL3) pIC50: 7.3
[4]; [8]
  IC50: > 10000 nM
[5]
  BAF3-KDR (MIN IL3) pIC50: 5.5
[6]
  BAF3-FGFR4 pIC50: ~6.64

## COc1cc(OC)c(F)c(N(Cc2ncccn2)c2ccc3ncc(-c4cnn(C)c4)nc3n2)c1F [Compound 11]
FGFR1 (h)
  IC50: 50.1 nM
FGFR2 (h); [7]
  IC50: 50.1 nM
FGFR3 (h)
  IC50: 7.08 nM
FGFR4 (h)
  IC50: 20 nM
KDR (h)
  IC50: 398 nM
[1]
  BAF3-FGFR1 (MIN IL3) pIC50: 7.4
[2]; [8]
  IC50: > 10000 nM
[4]; [8]
  IC50: > 10000 nM
[5]
  BAF3-KDR (MIN IL3) pIC50: 6.3
[6]
  BAF3-FGFR4 pIC50: ~7.02

## COc1cc(OC)c(F)c(/N=c2\ccc3ncc(-c4cnn(C)c4)nc3n2CCNC(C)C)c1F [Compound 6]
FGFR1 (h)
  IC50: 1 nM
FGFR2 (h); [7]
  IC50: 5.01 nM
FGFR3 (h)
  IC50: 3.16 nM
FGFR4 (h)
  IC50: 5.01 nM
KDR (h)
  IC50: 50.1 nM
[1]
  BAF3-FGFR1 (MIN IL3) pIC50: 8.0
[2]; [8]
  IC50: > 10000 nM
[3]
  BAF3-FGFR3 (MIN IL3) pIC50: 7.6
[4]; [8]
  IC50: > 10000 nM
[5]
  BAF3-KDR (MIN IL3) pIC50: 5.7

## COc1cc(OC)cc(N(Cc2ncccn2)c2ccc3ncc(-c4cnn(C)c4)nc3n2)c1 [Compound 12]
FGFR1 (h)
  IC50: 1.58 nM
FGFR2 (h); [7]
  IC50: 3.98 nM
FGFR3 (h)
  IC50: 2.51 nM
FGFR4 (h)
  IC50: 12.6 nM
KDR (h)
  IC50: 39.8 nM
[1]
  BAF3-FGFR1 (MIN IL3) pIC50: 7.3
[2]; [8]
  IC50: > 10000 nM
[3]
  BAF3-FGFR3 (MIN IL3) pIC50: 7.1
[4]; [8]
  IC50: > 10000 nM
[5]
  BAF3-KDR (MIN IL3) pIC50: 5.5
[6]
  BAF3-FGFR4 pIC50: 6.26
